Read-outs that look alike come from different tables or passages of the source.

In one assay the test system is NMDA receptor. The following applies: C. Carter et al, J. Pharm Exp. Ther., 247(3), 1222-1232 (1988); cited from earlier work.
In a further assay the target is T1, sigma receptor (Rattus norvegicus, UniProt Q9R0C9).
T1 construct: crude membrane preparations were prepared as follows; Brains from male Sprague-Dawley rats; from tissue; host or cells: whole brain of male Sprague-Dawley rats, crude membranes
The assay can be described thus: Radioreceptor assay: sigma receptor binding (displacement of [3H]-3-(+)-PPP) in crude rat brain membranes. Also on record: species or system male Sprague-Dawley rats. The procedure: To determine the effects of the compounds in a sigma receptor assay, crude membrane preparations were prepared as follows. Brains from male Sprague-Dawley rats were homogenized in 10 volumes (wt/vol) of 0.32M sucrose, using a Polytron grinder. The homogenate was centrifuged at 900×g for 10 minutes at 4° C. The supernatant was collected and centrifuged at 22,000×X g for 20 minutes at 4° C. The pellet was resuspended in 10 volumes of 50 mM Tris/HCl buffer (pH 7.4) and centrifuged at 22,000×g for 20 minutes at 4° C. The pellet was resuspended in 5 mM Tris/HCl buffer (pH 7.4) to give a final concentration of 250 mg/ml of the crude material. Incubation tubes were prepared in triplicate and contained 0.1 ml of tissue suspension, 2 nM of [^3 H]-(+)-1-propyl-3-(3-hydroxyphenyl)piperidine [^3 H]-3-(+)-PPP, and varying concentrations of the displacing ligand (0.1-1000 nM) in a final volume of 0.5 ml. After a 1 hr incubation at room temperature, the contents of the test tubes were filtered through GS filter paper which had been presoaked for at least 2 hours in 0.05% polyethyleneimine. The test tubes were rinsed three times with Tris/HCl buffer. Radioactivity on the filters was determined using liquid scintillation spectrometry and inhibition curves were calculated according to the method of Cheng and Prusoff [Biochem. Pharmacol., 22, 3099-3108 (1973)].

Assay [1] has as its system N-allylnormetazocine-induced stereotyped behavior. Description: Blockade of agonist (N-allylnormetazocine)-induced stereotyped behavior and ataxia. The assay is classed as in vivo. The following applies: ip, N-allylnormetazocine 15 mg/kg i.p. As for the experimental part:
Compounds of the invention were evaluated for their ability to block the effects of N-allylnormetazocine on the induction of stereotyped behavior and ataxia. To test for antagonism, drugs are administered at varying times before i.p. administration of 15 mg/kg of N-allylnormetazocine. Behavioral and ataxia ratings are taken at 2.5 minutes, 5 minutes, and every 5 minutes thereafter until the animal returns to control behavior. […] The lowest dose of the test compound which is capable of blocking the stereotyped behavior and ataxia induced by N-allylnormetazocine was determined.

Setting [2] is: [3H]-3-(+)-PPP 2 nM, rat brain crude membranes, 1 hr, room temperature, ± SEM, Table II, read-out: Ki apparent (units ± SEM).
Setting [3] is: test compound i.p. (route given for the 1 mg/kg dose), read-out: dose which fully blocked N-allylnormetazocine-induced stereotyped behavior (lowest dose capable of blocking).

T1 sequence (Q9R0C9 whole entry): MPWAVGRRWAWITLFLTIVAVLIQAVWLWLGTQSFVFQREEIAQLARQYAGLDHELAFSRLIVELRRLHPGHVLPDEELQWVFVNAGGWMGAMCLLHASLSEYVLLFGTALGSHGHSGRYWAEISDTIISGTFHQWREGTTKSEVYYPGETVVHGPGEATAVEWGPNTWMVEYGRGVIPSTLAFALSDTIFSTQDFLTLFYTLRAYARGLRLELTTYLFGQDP

As to “1-(4-chlorophenyl)-2-[1-(4-fluorophenyl)piperidinyl]ethanol”, the “found to be non-competitive NMDA receptor antagonists” value in the assay with NMDA receptor is “non-competitive NMDA receptor antagonists”.
`c1ccc2c(c1)C1CCC2C(N2CCCCC2)C1` (centres unmarked) [Compound No. 1, 1-(2-Benzobicyclo[2.2.2]octenyl)piperidine]: the Ki on sigma receptor (setting [2]) was found to be 137 ± 9 nM.
Turning to `c1ccc2c(c1)C1CCC2C(CN2CCCCC2)C1` (centres unmarked) [Compound No. 2, 1-(2-Benzobicyclo[2.2.2]octenyl)methylpiperidine], at sigma receptor (setting [2]), the Ki amounted to 11 ± 6 nM. Further, in assay [1] (setting [3]), the minimal effective dose turned out to be 3 mg/kg.
As for `CN1CCN(CC2CC3CCC2c2ccccc23)CC1` (centres unmarked) [Compound No. 3, 1-(2-Benzobicyclo[2.2.2]octenyl)methyl-4-methylpiperazine], the Ki on sigma receptor (setting [2]) stood at 4 ± 2 nM. In assay [1] (setting [3]), the minimal effective dose is 1 mg/kg.
As for `CN1CCN(C2CC3CCC2c2ccccc23)CC1` (centres unmarked) [Compound No. 4, 1-(2-benzobicyclo[2.2.2]octenyl)-4-methylpiperazine], the Ki at sigma receptor (setting [2]) amounted to 170 ± 40 nM.
Compound `c1ccc2c(c1)C1CC(CN3CCCCC3)C2C1` (centres unmarked) [Compound No. 5, 1-(2-Benzobicyclo[2.2.1]heptenyl)methylpiperidine] gave a Ki at sigma receptor of 9 ± 4 nM. Further, the minimal effective dose in assay [1] (setting [3]) amounted to 1 mg/kg.
For the compound `c1ccc2c(c1)C1CC2C(N2CCCCC2)C1` (centres unmarked) [Compound No. 6, 1-(2-Benzobicyclo[2.2.1]heptenyl)piperidine], at sigma receptor, the Ki stood at 0.075 ± 0.06 nM. In addition, the minimal effective dose in assay [1] (read-out: dose which blocked these same responses (N-allylnormetazocine-induced stereotyped behavior; not stated as fully)) was found to be 10 mg/kg.
At sigma receptor, `CN1CCN(CC2CC3CC2c2ccccc23)CC1` (centres unmarked) [Compound No. 7, 1-(2-benzobicyclo[2.2.1]-heptenyl)methyl-4-methylpiperazine] had a Ki of 22000 ± 2000 nM.
`CN1CCN(C2CC3CC2c2ccccc23)CC1` (centres unmarked) [Compound No. 8, 1-(2-Benzobicyclo[2.2.1]heptenyl)-4-methylpiperazine]: on sigma receptor, the Ki stood at 943 ± 3 nM.
For the compound `CC(C(O)c1ccc(O)cc1)N1CCC(Cc2ccccc2)CC1` (centres unmarked) [ifenprodil], the “found to be non-competitive NMDA receptor antagonists” value in the assay with NMDA receptor is “non-competitive NMDA receptor antagonists”.

These data come from patent publication US5089506A, “Ethanobicyclic amine derivatives for CNS disorders” (G. D. Searle & Co., priority 1990, dated 1992).
